These are literature values, as cited in PubChem BioAssay AID1259409 (Chemical Carcinogenesis Research Information System (CCRIS), 2018).

The series relates to rodent chemically induced tumor inhibition, incidence and multiplicity. As to the kind of experiment: CCRIS tumor inhibitor studies. To be noted: Route [Inhibitor]: ORAL, Species: RAT.

In the case of `COc1cc(/C=C/C(=O)O[C@H]2CC[C@]34C[C@]35CC[C@]3(C)[C@@H]([C@H](C)CCC=C(C)C)CC[C@@]3(C)[C@@H]5CC[C@H]4C2(C)C)ccc1O`, the “tumour outcome (control, treated, inhibition, significance)” value by setting is: (Carcinogen: 3,2'-DIMETHYL-4-AMINOBIPHENYL, 13394-86-0, Dose [Inhibitor]: 0, 2% IN BASAL DIET BEGINNING POST CARCINOGEN TREATMENT AND CONTINUING FOR 40 WK (STUDY DURATION: 60 WK), Strain/Sex: F344/MALE, Target Tissue: Type of Lesion: SMALL INTESTINE: ADENOMA AND ADENOCARCINOMA, Dose [Carcinogen]: 50 MG/KG 1/2 WK FOR 20 WK TO RATS MAINTAINED ON ETHINYL ESTRADIOL CONTAINING DIET (0.75 PPM) FOR 1 WK CYCLED WITH ETHINY, Promoter: ETHINYL ESTRADIOL, 57-63-6) 2/10 (20%), 3/13 (23%), -15%, not significant; (Carcinogen: 3,2'-DIMETHYL-4-AMINOBIPHENYL, 13394-86-0, Dose [Inhibitor]: 0, 2% IN BASAL DIET BEGINNING POST CARCINOGEN TREATMENT AND CONTINUING FOR 40 WK (STUDY DURATION: 60 WK), Strain/Sex: F344/MALE, Target Tissue: Type of Lesion: SUBCUTIS: TUMOR, Dose [Carcinogen]: 50 MG/KG 1/2 WK FOR 20 WK TO RATS MAINTAINED ON ETHINYL ESTRADIOL CONTAINING DIET (0.75 PPM) FOR 1 WK CYCLED WITH ETHINY, Promoter: ETHINYL ESTRADIOL, 57-63-6) 1/10 (10%), 0/13 (0%), 100%, not significant; (Carcinogen: 3,2-DIMETHYL-4-AMINOBIPHENYL, 13394-86-0, Dose [Inhibitor]: 0, 2% IN BASAL DIET BEGINNING POST CARCINOGEN TREATMENT AND CONTINUING FOR 40 WK (STUDY DURATION: 60 WK), Strain/Sex: F344/MALE, Target Tissue: Type of Lesion: PREPUTIAL GLAND: ADENOMA AND CARCINOMA, Dose [Carcinogen]: 50 MG/KG 1/2 WK FOR 20 WK TO RATS MAINTAINED ON ETHINYL ESTRADIOL CONTAINING DIET (0.75 PPM) FOR 1 WK CYCLED WITH ETHINY, Promoter: ETHINYL ESTRADIOL, 57-63-6) 5/10 (50%), 8/13 (62%), -24%, not significant; (Carcinogen: 3,2-DIMETHYL-4-AMINOBIPHENYL, 13394-86-0, Dose [Inhibitor]: 0, 2% IN BASAL DIET BEGINNING POST CARCINOGEN TREATMENT AND CONTINUING FOR 40 WK (STUDY DURATION: 60 WK), Strain/Sex: F344/MALE, Target Tissue: Type of Lesion: ZYMBAL GLAND: ADENOMA AND CARCINOMA, Dose [Carcinogen]: 50 MG/KG 1/2 WK FOR 20 WK TO RATS MAINTAINED ON ETHINYL ESTRADIOL CONTAINING DIET (0.75 PPM) FOR 1 WK CYCLED WITH ETHINY, Promoter: ETHINYL ESTRADIOL, 57-63-6) 2/10 (20%), 0/13 (0%), 100%, not significant; (Carcinogen: 3,2-DIMETHYL-4-AMINOBIPHENYL, 13394-86-0, Dose [Inhibitor]: 0, 200% PPM IN BASAL DIET BEGINNING POST CARCINOGEN TREATMENT AND CONTINUING FOR 40 WK (STUDY DURATION: 60 WK), Strain/Sex: F344/MALE, Target Tissue: Type of Lesion: LARGE INTESTINE: ADENOMA AND ADENOCARCINOMA, Dose [Carcinogen]: 50 MG/KG 1/2 WK FOR 20 WK TO RATS MAINTAINED ON ETHINYL ESTRADIOL CONTAINING DIET (0.75 PPM) FOR 1 WK CYCLED WITH ETHINY, Promoter: ETHINYL ESTRADIOL, 57-63-6) 3/10 (30%), 3/13 (23%), 23%, not significant; (Carcinogen: 7,12-DIMETHYLBENZ[A]ANTHRACENE [57-97-6], Dose [Inhibitor]: 1% IN DIET FOR 35 WK BEGINNING 1 WK POST LAST CARCINOGEN DOSE (STUDY DURATION: 36 WK), Strain/Sex: SPRAGUE-DAWLEY/FEMALE, Target Tissue: Type of Lesion: MAMMARY GLAND: CARCINOMA, Dose [Carcinogen]: 50 MG/KG BW ONCE (STUDY DURATION: 36 WK), Promoter: NONE) 14/15 (93%), 15/16 (94%), -1%, not significant. The “tumour outcome (control, treated, inhibition, significance)” value is given as 3/15 (20%), 2/16 (13%), 35%, not significant (Carcinogen: 7,12-DIMETHYLBENZ[A]ANTHRACENE [57-97-6], Dose [Inhibitor]: 1% IN DIET FOR 35 WK BEGINNING 1 WK POST LAST CARCINOGEN DOSE (STUDY DURATION: 36 WK), Strain/Sex: SPRAGUE-DAWLEY/FEMALE, Target Tissue: Type of Lesion: MAMMARY GLAND: FIBROADENOMA, Dose [Carcinogen]: 50 MG/KG BW ONCE (STUDY DURATION: 36 WK), Promoter: NONE); 5/15 (33%), 7/16 (44%), -33%, not significant (Carcinogen: 7,12-DIMETHYLBENZ[A]ANTHRACENE, 57-97-6, Dose [Inhibitor]: 0, 1% IN DIET FOR 35 WK BEGINNING POST CARCINOGEN DOSE (STUDY DURATION: 36 WK), Strain/Sex: SPRAGUE-DAWLEY/FEMALE, Target Tissue: Type of Lesion: EAR DUCT: TUMOR, Dose [Carcinogen]: 50 MG/KG BW IN CORN OIL ONCE, Promoter: NONE USED); 14/15 (93%), 15/16 (94%), -1%, not significant (Carcinogen: 7,12-DIMETHYLBENZ[A]ANTHRACENE, 57-97-6, Dose [Inhibitor]: 0, 1% IN DIET FOR 35 WK BEGINNING POST CARCINOGEN DOSE (STUDY DURATION: 36 WK), Strain/Sex: SPRAGUE-DAWLEY/FEMALE, Target Tissue: Type of Lesion: MAMMARY GLAND: ADENOCARCINOMA, Dose [Carcinogen]: 50 MG/KG BW IN CORN OIL ONCE, Promoter: NONE USED); 3/15 (20%), 2/16 (13%), 35%, not significant (Carcinogen: 7,12-DIMETHYLBENZ[A]ANTHRACENE, 57-97-6, Dose [Inhibitor]: 0, 1% IN DIET FOR 35 WK BEGINNING POST CARCINOGEN DOSE (STUDY DURATION: 36 WK), Strain/Sex: SPRAGUE-DAWLEY/FEMALE, Target Tissue: Type of Lesion: MAMMARY GLAND: FIBROADENOMA, Dose [Carcinogen]: 50 MG/KG BW IN CORN OIL ONCE, Promoter: NONE USED).
